± gives the expanded uncertainty stated by the source.
Settings: Liquid, Frequency=8 MHz, Pulse-echo method

[2H]O[2H] [water-d2]
Settings	speed of sound [m/s]
278.21 K, 150.19 kPa	1326 ± 0.68
278.21 K, 152.01 kPa	1326 ± 0.68
278.21 K, 5021.9 kPa	1332.5 ± 0.68
278.21 K, 5025.1 kPa	1332.5 ± 0.68
278.21 K, 9983.4 kPa	1339.3 ± 0.69
278.21 K, 9986 kPa	1339.3 ± 0.69
278.21 K, 15113 kPa	1346.4 ± 0.69
278.21 K, 15117 kPa	1346.5 ± 0.69
278.21 K, 20109 kPa	1353.6 ± 0.69
278.21 K, 20152 kPa	1353.7 ± 0.69
278.22 K, 2465.2 kPa	1329.1 ± 0.68
278.22 K, 2465.6 kPa	1329.1 ± 0.68
283.21 K, 154.9 kPa	1347.8 ± 0.69
283.21 K, 156.96 kPa	1347.8 ± 0.69
283.21 K, 2494.8 kPa	1351.1 ± 0.69
283.21 K, 2498 kPa	1351.1 ± 0.69
283.21 K, 5043.1 kPa	1354.6 ± 0.69
283.21 K, 5043.6 kPa	1354.6 ± 0.69
283.21 K, 9942.4 kPa	1361.6 ± 0.69
283.21 K, 9943.6 kPa	1361.6 ± 0.69
283.21 K, 15142 kPa	1369 ± 0.7
283.21 K, 15143 kPa	1369.1 ± 0.7
283.21 K, 20195 kPa	1376.4 ± 0.7
283.21 K, 20198 kPa	1376.4 ± 0.7
293.2 K, 179.82 kPa	1384.1 ± 0.7
293.2 K, 181.19 kPa	1384.1 ± 0.7
293.2 K, 2473.1 kPa	1387.5 ± 0.7
293.2 K, 2473.2 kPa	1387.5 ± 0.7
293.2 K, 5119.8 kPa	1391.4 ± 0.71
293.2 K, 5125.6 kPa	1391.4 ± 0.71
293.2 K, 10078 kPa	1398.8 ± 0.71
293.2 K, 10086 kPa	1398.8 ± 0.71
293.2 K, 15047 kPa	1406.2 ± 0.71
293.2 K, 15052 kPa	1406.2 ± 0.71
293.2 K, 20333 kPa	1414.2 ± 0.97
293.2 K, 20361 kPa	1414.2 ± 0.97
313.2 K, 109.61 kPa	1432.5 ± 0.72
313.2 K, 109.88 kPa	1432.5 ± 0.72
313.2 K, 2458.2 kPa	1436.3 ± 0.72
313.2 K, 2468.5 kPa	1436.3 ± 0.72
313.2 K, 5110.5 kPa	1440.5 ± 0.72
313.2 K, 5110.8 kPa	1440.5 ± 0.72
313.2 K, 15060 kPa	1456.3 ± 0.73
313.2 K, 20267 kPa	1464.5 ± 0.73
313.2 K, 20276 kPa	1464.6 ± 0.73
333.2 K, 195.58 kPa	1456.2 ± 0.73
333.2 K, 211.29 kPa	1456.2 ± 0.73
333.2 K, 2499.2 kPa	1460.1 ± 0.73
333.2 K, 2499.6 kPa	1460.1 ± 0.73
333.2 K, 5054.7 kPa	1464.5 ± 0.73
333.2 K, 5055 kPa	1464.5 ± 0.73
333.2 K, 10044 kPa	1473 ± 2.3
333.2 K, 10071 kPa	1473.1 ± 2.3
333.2 K, 20122 kPa	1490 ± 0.74
333.2 K, 20126 kPa	1490 ± 0.74
353.2 K, 142.15 kPa	1460.6 ± 0.73
353.2 K, 144.59 kPa	1460.6 ± 0.73
353.2 K, 2522.3 kPa	1465.1 ± 0.73
353.2 K, 2528 kPa	1465 ± 0.73
353.2 K, 5032.1 kPa	1469.7 ± 0.74
353.2 K, 5034.1 kPa	1469.7 ± 0.74
353.2 K, 10091 kPa	1479 ± 0.74
353.2 K, 10094 kPa	1479.1 ± 0.74
353.2 K, 15060 kPa	1488 ± 0.74
353.2 K, 15062 kPa	1488.1 ± 0.74
